Results reported in ChEMBL document CHEMBL1138223, “Synthesis of low-hemolytic antimicrobial dehydropeptides based on gramicidin s” (2006).
In brackets after ≈: the same amount, converted by molar mass. Activity calls are given as the source filed them. No cut-off for these calls is given here. Numbered stars: 1 amine (or outer) side, 2 acyl side, 3 side chain; on linkers, the order of the positions; unused ones are H or OH. Square brackets hold non-standard residues; d marks the D form. Peptide text beside a SMILES is read from it. X1 = O=C(/C(=C/c1cccnc1)N[*:1])[*:2]; X2 = O=C(/C(=C/c1ccccc1)N[*:1])[*:2]; Orn = NCCC[C@H](N)C(=O)O

Experiments:
Staphylococcus aureus = test: Antimicrobial activity against Staphylococcus aureus 209P by liquid broth method; format: functional
Escherichia coli = test: Antimicrobial activity against Escherichia coli K12 W3110 by liquid broth method; format: functional
Erythrocyte = test: Induction of human erythrocyte hemolysis; format: functional, cell-based

Q: How did the MIC (Staphylococcus aureus) turn out when `CC(C)C[C@@H]1NC(=O)[C@H](CCCN)NC(=O)[C@H](C(C)C)NC(=O)[C@@H]2CCCN2C(=O)[C@@H](Cc2cccnc2)NC(=O)[C@H](CC(C)C)NC(=O)[C@H](CCCN)NC(=O)[C@H](C(C)C)NC(=O)[C@@H]2CCCN2C(=O)[C@@H](Cc2cccnc2)NC1=O` was run?
A: Its MIC is 64 µg/mL (≈ 56 µM).

Q: What about the MIC (Escherichia coli) of the same compound?
A: Its MIC is 64 µg/mL (≈ 56 µM).

Q: What about the Activity (Erythrocyte) of the same compound?
A: The Activity was “inactive”.

Q: With `CC(C)C[C@@H]1NC(=O)[C@H](CCCN)NC(=O)[C@H](C(C)C)NC(=O)[C@@H]2CCCN2C(=O)/C(=C/c2cccnc2)NC(=O)[C@H](CC(C)C)NC(=O)[C@H](CCCN)NC(=O)[C@H](C(C)C)NC(=O)[C@@H]2CCCN2C(=O)/C(=C/c2cccnc2)NC1=O` (cyclo(L[X1]PV[Orn]L[X1]PV[Orn])) as the compound, how does the MIC (Staphylococcus aureus) read?
A: Its MIC is 8 µg/mL (≈ 7.02 µM).

Q: What about the MIC (Escherichia coli) of the same compound?
A: Its MIC is 32 µg/mL (≈ 28.1 µM).

Q: How did the MIC (Staphylococcus aureus) turn out when `CC(C)C[C@@H]1NC(=O)[C@H](CCCN)NC(=O)[C@H](C(C)C)NC(=O)[C@@H]2CCCN2C(=O)/C(=C/c2ccccc2)NC(=O)[C@H](CC(C)C)NC(=O)[C@H](CCCN)NC(=O)[C@H](C(C)C)NC(=O)[C@@H]2CCCN2C(=O)/C(=C/c2cccnc2)NC1=O` (cyclo(L[X2]PV[Orn]L[X1]PV[Orn])) was run?
A: Its MIC is 4 µg/mL (≈ 3.51 µM).

Q: What about the MIC (Escherichia coli) of the same compound?
A: Its MIC is 32 µg/mL (≈ 28.1 µM).

Q: What does the source list for `CC(C)C[C@@H]1NC(=O)[C@H](CCCN)NC(=O)[C@H](C(C)C)NC(=O)[C@@H]2CCCN2C(=O)/C(=C/c2ccccc2)NC(=O)[C@H](CC(C)C)NC(=O)[C@H](CCCN)NC(=O)[C@H](C(C)C)NC(=O)[C@@H]2CCCN2C(=O)/C(=C/c2ccccc2)NC1=O` (cyclo(L[X2]PV[Orn]L[X2]PV[Orn]))?
A: MIC (Staphylococcus aureus): 4 µg/mL (≈ 3.52 µM); MIC (Escherichia coli): 32 µg/mL (≈ 28.1 µM)

Q: What does the source list for `CC(C)C[C@@H]1NC(=O)[C@H](CCCN)NC(=O)[C@H](C(C)C)NC(=O)[C@@H]2CCCN2C(=O)[C@@H](Cc2ccc(O)cc2)NC(=O)[C@H](CC(C)C)NC(=O)[C@H](CCCN)NC(=O)[C@H](C(C)C)NC(=O)[C@@H]2CCCN2C(=O)[C@@H](Cc2ccc(O)cc2)NC1=O` (cyclo(L[dY]PV[Orn]L[dY]PV[Orn]))?
A: MIC (Staphylococcus aureus): 4 µg/mL (≈ 3.41 µM); MIC (Escherichia coli): 32 µg/mL (≈ 27.3 µM)

Q: For `CC(C)C[C@@H]1NC(=O)[C@H](CCCN)NC(=O)[C@H](C(C)C)NC(=O)[C@@H]2CCCN2C(=O)[C@@H](Cc2ccccc2)NC(=O)[C@H](CC(C)C)NC(=O)[C@H](CCCN)NC(=O)[C@H](C(C)C)NC(=O)[C@@H]2CCCN2C(=O)[C@@H](Cc2ccccc2)NC1=O` [GRAMICIDIN S] (cyclo(L[dF]PV[Orn]L[dF]PV[Orn])), which MIC (Staphylococcus aureus) is on record?
A: The MIC was 4 µg/mL (≈ 3.5 µM).

Q: What about the MIC (Escherichia coli) of the same compound?
A: Its MIC is 16 µg/mL (≈ 14 µM).
